How the values were obtained:
HCT116 cells [1] = experiment: Resazurin assay, HCT116 2D monolayer; type: cell-based, human; conditions: 96 h
Method: (§1) CH1/PA-1 (ovarian teratocarcinoma), SW480 (colon carcinoma) and A549 (non-small cell lung cancer) cells were maintained as described in the reference. IMR-90 human fetal lung fibroblasts (from the European Collection of Authenticated Cell Cultures, Porton Down, Salisbury, UK) were cultured in Stable Cell^TM DMEM/F12 supplemented with 0.01 mg/mL human recombinant insulin (both purchased from Sigma-Aldrich) and 10% fetal bovine serum (FBS, BioWest, Nuaillé, France). Human colon carcinoma cell lines HCT116 and HT29 (both kindly provided by the Institute of Cancer Research, Department of Medicine I, Medical University of Vienna, Austria) were cultured in McCoy’s 5a medium supplemented with 4 mM L-glutamine (both purchased from Sigma-Aldrich) and 10% FBS. MCF-7 human breast adenocarcinoma cells (kindly provided by M. Ogris, Department of Pharmaceutical Sciences, University of Vienna, Austria) were maintained in DMEM (high glucose) supplemented with 4 mM L-glutamine, 0.1 mg/mL human insulin (all purchased from Sigma-Aldrich) and 10% FBS. All cell lines were grown as monolayers in 75 cm^2 culture flasks (CytoOne, Starlab, Hamburg, Germany) at 37 °C in a humidified atmosphere containing 5% CO2.
(§2) For the resazurin assay in monolayer cultures, cells were seeded into 96-well microculture plates (CytoOne, tissue culture treated, Starlab, Hamburg, Germany) in densities of 2 × 10^3 HCT116, 2 × 10^3 HT29 and 4 × 10^3 MCF-7 cells per well (each in 100 µL). For tests in 3D cultures, spheroids were grown as described above. After 24 h (for monolayers) or 4 days (for spheroids) the test compounds in the appropriate medium were added in serial dilution to the plates to obtain a total volume of 200 µL/well. Wells without cells, containing medium and resazurin (Alfa Aesar, Thermo Fisher, Kandel, Germany) solution were used as blanks. After 96 h exposure 20 µL of the resazurin solution (440 µM) were added to each well, followed by a 4 h (2D) or 12 h (3D) incubation period. Resorufin fluorescence was quantified at 530 nm (and a reference wavelength of 620 nm) by using a microplate reader (Synergy HT, BioTek) with Gen5^TM 3.10 software (BioTek).

[2] = system: HCT116 multicellular tumor spheroids; experiment: Resazurin assay, HCT116 3D spheroids; type: cell-based, human; conditions: 96 h, spheroids
Method: as §1
For growing multicellular tumor spheroids, 400 HCT116, 400 HT29 or 800 MCF-7 cells per well were plated into round-bottom ultra-low attachment 96-well plates (Corning, Glendale, AZ, USA) in the media described above and incubated at 37 °C for 96 h. Spheroids were treated with 10 µM of the two most cytotoxic compounds 3 and 4 for another 96 h. The diameters of the spheroids were measured with Cell^F software under a CKX41 Olympus microscope before treatment and in constant daily intervals over the 96 h treatment period. For statistical analysis the t-test with Welsh’s correction was implemented in GraphPad Prism software (Version 6.01).
as §2

HT29 cells [3] = experiment: Resazurin assay, HT29 2D monolayer; type: cell-based, human; conditions: 96 h
Method: as §1, §2

HCT116 cells [4] = experiment: Annexin V-FITC/PI apoptosis assay, HCT116; type: cell-based, human; conditions: HCT116, 24 h, 200 µM; for ∑apoptotic cells [%]: sum of early and late
HT29 cells [5] = experiment: Annexin V-FITC/PI apoptosis assay, HT29; conditions: HT29, 24 h, 200 µM; for ∑apoptotic cells [%]: sum of early and late
MCF-7 cells = experiment: Annexin V-FITC/PI apoptosis assay, MCF-7; conditions: MCF-7, 24 h, 200 µM; for ∑apoptotic cells [%]: sum of early and late
[6] = system: SW480 (colon carcinoma) cells; experiment: MTT cytotoxicity assay, SW480 monolayer; type: cell-based, human; conditions: exposure time 96 h, mean ± SD
Method: as §1
Exponentially growing cells were plated into 96-well microculture plates (CytoOne, tissue culture treated, Starlab, Hamburg, Germany) in densities of 1 × 10^3 CH1/PA-1, 2 × 10^3 SW480, 3 × 10^3 A549 and 7 × 10^3 IMR-90 cells per well (each in 100 µL). After a 24 h preincubation, drugs were added in serial dilution to give a final volume of 200 µL/well and exposed for 96 h. At the end of the exposure, the drug solutions were replaced by 100 µL RPMI 1640/MTT mixture (7:1 ratio). MTT (3-(4,5-dimethylthiazol-2-yl)-2,5-diphenyl-2H-tetrazolium bromide), (Acros Organics, Geel, Belgium) solution was prepared in phosphate-buffered saline (5 mg/mL) and mixed with RPMI1640 medium supplemented with 4 mM L-glutamine (both from Sigma-Aldrich) and 10% FBS. After 4 h incubation, the formazan crystals were solubilized in 150 µL of DMSO per well. Absorbance was measured at 550 nm (and at 690 nm as a reference) with a microplate reader (ELx808, BioTek, Winoosky, VT, USA) and Gen5^TM 3.08 software (BioTek). The 50% inhibitory concentrations (IC50) relative to untreated controls were interpolated from concentration-effect curves. At least three biologically and technically independent experiments were performed.

F[P-](F)(F)(F)(F)F.O=C([O-])c1ccccn1.[W+4].c1cc[cH-]c1.c1cc[cH-]c1 [Compound 5, Bis(η^5-cyclopentadienyl)[2-(carboxylato-κO)-pyridine-κN]tungsten(IV) hexafluorophosphate]
IC50 (HCT116 cells [1]): > 200 µM | IC50 [2]: > 200 µM | IC50 (HT29 cells [3]): > 200 µM | early apoptotic cells [%] AV+ / PI- (HCT116 cells [4]): 2.0 ± 1.1% | late apoptotic cells [%] AV+ / PI+ (HCT116 cells [4]): 2.9 ± 0.7% | necrotic cells [%] AV- / PI+ (HCT116 cells [4]): 2.4 ± 1.2% | viable cells [%] AV- / PI- (HCT116 cells [4]): 92.7 ± 1.3% | ∑apoptotic cells [%] (HCT116 cells [4]): 4.9% | early apoptotic cells [%] AV+ / PI- (HT29 cells [5]): 0.9 ± 0.7% | late apoptotic cells [%] AV+ / PI+ (HT29 cells [5]): 5.3 ± 6.9% | necrotic cells [%] AV- / PI+ (HT29 cells [5]): 2.3 ± 1.5% | ∑apoptotic cells [%] (HT29 cells [5]): 6.2% | early apoptotic cells [%] AV+ / PI- (MCF-7 cells): 1.3 ± 0.7% | late apoptotic cells [%] AV+ / PI+ (MCF-7 cells): 7.9 ± 5.3% | necrotic cells [%] AV- / PI+ (MCF-7 cells): 4.2 ±2.2% | ∑apoptotic cells [%] (MCF-7 cells): 9.2% | IC50 [6]: 147 ± 21 µM

Cc1c([O-])c(=O)ccn1C.F[P-](F)(F)(F)(F)F.[W+4].c1cc[cH-]c1.c1cc[cH-]c1 [Compound 6, Bis(η^5-cyclopentadienyl)[1,2-dimethyl-3-(oxo-κO)-4-(1H)-pyridonato-κO]tungsten(IV) hexafluorophosphate]
IC50 (HCT116 cells [1]): > 200 µM | IC50 [2]: > 200 µM | IC50 (HT29 cells [3]): > 200 µM | early apoptotic cells [%] AV+ / PI- (HCT116 cells [4]): 5.0 ± 1.3% | late apoptotic cells [%] AV+ / PI+ (HCT116 cells [4]): 17.2 ± 122% | necrotic cells [%] AV- / PI+ (HCT116 cells [4]): 3.1 ± 0.7% | viable cells [%] AV- / PI- (HCT116 cells [4]): 74.7 ± 14.1% | ∑apoptotic cells [%] (HCT116 cells [4]): 22.2% | early apoptotic cells [%] AV+ / PI- (HT29 cells [5]): 4.3 ± 1.8% | late apoptotic cells [%] AV+ / PI+ (HT29 cells [5]): 4.2 ± 0.6% | necrotic cells [%] AV- / PI+ (HT29 cells [5]): 2.4 ± 0.7% | viable cells [%] AV- / PI- (HT29 cells [5]): 89.1 ± 0.4% | ∑apoptotic cells [%] (HT29 cells [5]): 8.5% | early apoptotic cells [%] AV+ / PI- (MCF-7 cells): 1.4 ± 0.8% | late apoptotic cells [%] AV+ / PI+ (MCF-7 cells): 3.6 ± 1.5% | necrotic cells [%] AV- / PI+ (MCF-7 cells): 2.1 ± 0.5% | viable cells [%] AV- / PI- (MCF-7 cells): 92.8 ± 2.2% | ∑apoptotic cells [%] (MCF-7 cells): 5.1% | IC50 [6]: 154 ± 29 µM

Cc1cc(=O)c([O-])co1.F[P-](F)(F)(F)(F)F.[W+4].c1cc[cH-]c1.c1cc[cH-]c1 [Compound 7, Bis(η^5-cyclopentadienyl)[2-methyl-5-(oxo-κO)-4-(1H)-pyran-4-ato-κO] tungsten(IV) hexafluorophosphate]
IC50 (HCT116 cells [1]): > 200 µM | IC50 [2]: > 200 µM | IC50 (HT29 cells [3]): > 200 µM | early apoptotic cells [%] AV+ / PI- (HCT116 cells [4]): 4.5 ± 1.8% | late apoptotic cells [%] AV+ / PI+ (HCT116 cells [4]): 13.7 ± 8.2% | necrotic cells [%] AV- / PI+ (HCT116 cells [4]): 3.6 ± 0.9% | viable cells [%] AV- / PI- (HCT116 cells [4]): 78.2 ± 9.3% | ∑apoptotic cells [%] (HCT116 cells [4]): 18.2% | early apoptotic cells [%] AV+ / PI- (HT29 cells [5]): 3.0 ± 1.6% | late apoptotic cells [%] AV+ / PI+ (HT29 cells [5]): 5.5 ± 1.9% | necrotic cells [%] AV- / PI+ (HT29 cells [5]): 3.1 ± 2.3% | viable cells [%] AV- / PI- (HT29 cells [5]): 88.4 ± 3.8% | ∑apoptotic cells [%] (HT29 cells [5]): 8.5% | early apoptotic cells [%] AV+ / PI- (MCF-7 cells): 1.3 ± 0.4% | late apoptotic cells [%] AV+ / PI+ (MCF-7 cells): 8.1 ± 5.5% | necrotic cells [%] AV- / PI+ (MCF-7 cells): 3.2 ± 1.2% | viable cells [%] AV- / PI- (MCF-7 cells): 87.4 ± 6.6% | ∑apoptotic cells [%] (MCF-7 cells): 9.4% | IC50 [6]: > 200 µM

Cc1cc(=S)c([O-])co1.F[P-](F)(F)(F)(F)F.[W+4].c1cc[cH-]c1.c1cc[cH-]c1 [Compound 8, Bis(η^5-cyclopentadienyl)[2-methyl-5-(oxo-κO)-pyran-4-(1H)-thionato-κS] tungsten(IV) hexafluorophosphate]
IC50 (HCT116 cells [1]): > 200 µM | IC50 [2]: 178 ± 14 µM | IC50 (HT29 cells [3]): > 200 µM | early apoptotic cells [%] AV+ / PI- (HCT116 cells [4]): 5.5 ± 2.0% | late apoptotic cells [%] AV+ / PI+ (HCT116 cells [4]): 12.4 ± 2.4% | necrotic cells [%] AV- / PI+ (HCT116 cells [4]): 2.8 ± 1.3% | viable cells [%] AV- / PI- (HCT116 cells [4]): 79.4 ± 3.5% | ∑apoptotic cells [%] (HCT116 cells [4]): 17.9% | early apoptotic cells [%] AV+ / PI- (HT29 cells [5]): 3.3 ± 2.1% | late apoptotic cells [%] AV+ / PI+ (HT29 cells [5]): 6.2 ± 4.1% | necrotic cells [%] AV- / PI+ (HT29 cells [5]): 2.1 ± 0.9% | viable cells [%] AV- / PI- (HT29 cells [5]): 88.4 ± 3.6% | ∑apoptotic cells [%] (HT29 cells [5]): 9.5% | early apoptotic cells [%] AV+ / PI- (MCF-7 cells): 1.2 ± 0.3% | late apoptotic cells [%] AV+ / PI+ (MCF-7 cells): 8.7 ± 6.9% | necrotic cells [%] AV- / PI+ (MCF-7 cells): 2.7 ± 1.4% | viable cells [%] AV- / PI- (MCF-7 cells): 87.3 ± 8.3% | ∑apoptotic cells [%] (MCF-7 cells): 9.9% | IC50 [6]: 129 ± 14 µM
